Tests used:
human STING (R232H) = human STING (R232H) (Homo sapiens, UniProt Q86WV6); test: Thermal shift binding assay, human STING (R232H); conditions: 100 μM compound, 5 μM STING protein; read-out: Human STING(R232H) Tm Shift
[1] = system: STING pathway, THP1 cells; test: Human IFN-α/β induction assay (THP1 supernatants on HEK-Blue IFN-α/β reporter cells); format: cell-based; conditions: THP1 cells 5 hrs, HEK-Blue reporter cells 24 hrs
Experimental: Genetically engineered human type-1 Interferons (IFN-α/β) sensor cells-HEK Blue™ IFNα/β cells (Invivogen) were employed to measure the type-1 IFNs produced by THP1 cells that are treated with activators of STING. The human embryonic (HEK) Blue™ cells are specially designed to monitor the activation of JAK/STAT pathway induced by type 1 IFNs. Briefly, THP1 cells are treated with compounds for 5 hrs. In the second step, supernatants of THP1 cells are transferred to HEK Blue™ IFNα/β reporter cells and incubated for 24 hrs. The secreted embryonic alkaline phosphatase (SEAP) activity in the supernatants of HEK blue IFNα/3 reporter cells is measured and used to determine the quantities of IFNs.
HEK-Blue IFN-α/β reporter cells (Invivogen) were used to measure the secretion of IFN-α/β into culture supernatants of THP1 cells following STING pathway activation. In the first step, THP1 cells were cultured in presence of STING activators for 5 hrs at 37° C., in a 5% CO2 tissue culture incubator, which facilitates the release of IFN-α/β into the supernatants. In the second step, cell supernatants from THP1 cells were transferred to HEK-Blue IFN-α/β reporter cells and incubated at 37° C., in a 5% CO2 incubator for 24 hrs. HEK-Blue IFN-α/β reporter cells are specifically designed to monitor the activation of JAK-STAT pathway activation by type 1 IFNs. These cells express a secreted embryonic alkaline phosphatase (SEAP) reporter gene under the control of ISG54 promoter, which is a well-known interferon stimulatory gene activated by type 1 IFNs. Upon IFN-α/β stimulation, HEK-Blue IFN-α/β reporter cells activate the JAK-STAT pathway and subsequently the expression of the reporter gene. SEAP which is secreted in the supernatant is easily detectable using alkaline phosphatase detection medium (Quanti-Blue reagent from Invivogen).
These assays were run by adding 2 μL of compound stock solution to tissue culture treated 384-well plates with electronic pipettes. Compounds were diluted in autoclaved sterile water, initially spotted on the intermediate dilution plate and then to the assay plate. […]

[2] = target: human STING (G230A-R293Q) (Homo sapiens (Human), UniProt Q86WV6, G230A/H232R/R293Q); test: Thermal shift binding assay, human STING (AQ); conditions: 100 μM compound, 5 μM STING protein; read-out: Human STING(AQ) Tm Shift
Chain of human STING (G230A-R293Q) (Q86WV6 155-379 G230A/H232R/R293Q): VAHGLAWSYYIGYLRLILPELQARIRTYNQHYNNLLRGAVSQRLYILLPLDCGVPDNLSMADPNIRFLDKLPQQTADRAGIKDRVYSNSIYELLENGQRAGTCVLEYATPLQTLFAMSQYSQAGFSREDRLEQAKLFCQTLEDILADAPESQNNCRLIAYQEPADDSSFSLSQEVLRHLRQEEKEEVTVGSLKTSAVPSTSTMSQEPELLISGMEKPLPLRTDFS

[3] = system: STING signaling, RAW-Dual reporter cells; test: Measurement of mouse IFN-β (ELISA); format: cell-based; conditions: Mus musculus, […]
Excerpt: Mouse Interferon-β (IFN-β) in the supernatants of murine macrophages treated with STING activators was quantified using sandwich enzyme linked immunosorbent assay (ELISA). Briefly, IFN-β binds to plates coated with antibody and detection is accomplished using a detection antibody followed by streptavidin conjugated to horseradish peroxidase. Tetramethyl-benzidine is used as the substrate in this kit (PBL Assay Science). […] In this invention, mouse IFN-β ELISA is used to determine the potency of compound on STING pathway activation in mouse macrophages.
Murine macrophage derived cell line RAW-Dual reporter cells (Invivogen) were used to measure the IFN-β produced by STING signaling activation. Briefly, 20,000 cells in 27 μL were seeded into tissue culture treated 384-well plate that contained 3 μL of test compound. Cells were incubated at 37° C., in a 5% CO2 incubator for 5.5 hours. Supernatants from treated cells were diluted 20-fold and prior to measurement of IFN-β levels using ELISA kit (PBL Assay Science). 100 μL of diluted sample was added to ELISA plate. Plates were incubated at RT for 1 hour with shaking at 650 rpm. Post incubation, samples were aspirated from wells and the wells were washed 4 times. Diluted antibody (50 μL) was added to plates and incubated at RT for 30 minutes with shaking, followed by aspiration of antibody and 4× washes. Diluted HRP (horseradish peroxidase) solution (50 μL) was added and incubated for 10 minutes, followed by aspiration of the solution and 4× wash steps. After the final wash steps, plates were incubated with 100 μL of TMB (tetramethyl benzidine) substrate for 10 minutes, followed by addition of 100 μL of stop solution and plates were read on Envision plate reader for optical density.

MC-38 tumor [4] = test: Treatment of MC-38 tumors with Example 1C and radiotherapy; format: in vivo, C57BL/6J mice; conditions: for #Tumor Free Mice after Treatment: 10 animals/group
Excerpt: Tumors grew for 7 days to an average size of 100 mm^3. […] On Days −2, −1 and 0 received 5 Gy of radiation targeted to the tumor using the Small Animal Radiation Research Platform (SARRP) manufactured by Xstrahl Inc. Radiotherapy treatments were given according to the outline in Table 18. […] Radiotherapy treatments were given according to the outline in Table 19.

human STING (WT) = human STING (WT) (Homo sapiens (Human), UniProt Q86WV6, H232R); test: Thermal shift binding assay, human STING (WT); conditions: 100 μM compound, 5 μM STING protein; read-out: Human STING(WT) Tm Shift
Chain of human STING (WT) (Q86WV6 155-379 H232R): as the sequence (Q86WV6 155-379 G230A/H232R/R293Q) above, with A76G, Q139R counted along it

CT-26 tumor = CT-26 tumor bearing mice, intra-tumoral treatment and re-challenge; conditions: for Number of surviving mice: 50 μg intra-tumoral Days 0, 3, 7; for Number of surviving mice in the re-challenge: mice with complete regression after 50 μg, re-challenged with CT-26, no further treatment
[5] = target: wild-type (WT) truncated human STING protein, amino acids 155-379 (Homo sapiens (Human), UniProt Q86WV6, H232R); test: Human WT STING [3H] 2′,3′-cGAMP scintillation proximity competition binding assay; conditions: read-out: Human WT Binding IC50
Chain of wild-type (WT) truncated human STING protein, amino acids 155-379 (Q86WV6 155-379 H232R): as the sequence (Q86WV6 155-379 G230A/H232R/R293Q) above, with A76G, Q139R counted along it
Excerpt: (§1) A human STING [^3H] 2′,3′-cGAMP scintillation proximity competition binding assay was utilized to detect binding of compounds to STING protein. […] The protein encoding plasmid contained a HIS tag, followed by an Avi tag and then a SUMO tag, which were followed by the STING coding sequence within the pET-28a (+) vector. The plasmid was transfected into a BL21 (DE3)/BirA E. coli co-expression strain. Protein was purified from the bacterial lysate using a cobalt-affinity column. The purified protein was dialyzed against PBS and then 20% glycerol was added prior to storage at −80° C.
(§2) 2′,3′-cGAMP in assay buffer (50 mM Tris pH 7.5, 100 mM NaCl, 0.1% Fatty Acid Free BSA). Test compounds (2.5 μL) were added to the plate first followed by a 25 μL mixture of STING protein, streptavidin PVT SPA beads (Perkin Elmer) and 10 μL [^3H] 2′,3′-cGAMP. Plates were incubated at room temperature for 18 hrs and read on a Wallac MicroBeta TriLux (Perkin Elmer).

MC-38 tumor [6] = test: MC-38 tumor bearing mice treated with Example 1C and anti-PD-1
[7] = target: AQ variant of truncated human STING protein, amino acids 155-379 (Homo sapiens (Human), UniProt Q86WV6, G230A/H232R/R293Q); test: Human AQ STING [3H] 2′,3′-cGAMP scintillation proximity competition binding assay; conditions: read-out: Human AQ Binding IC50
Chain of AQ variant of truncated human STING protein, amino acids 155-379 (Q86WV6 155-379 G230A/H232R/R293Q): as the sequence (Q86WV6 155-379 G230A/H232R/R293Q) above
Excerpt: as §1, §2

[8] = system: STING pathway genes, THP1 Dual (HAQ) human cells; test: qRT-PCR assay, THP1 Dual (HAQ) human cells; format: cell-based
mouse STING = mouse STING (Mus musculus (Mouse), UniProt Q3TBT3); test: Thermal shift binding assay, mouse STING; conditions: 100 μM compound, 5 μM STING protein; read-out: Mouse STING Tm Shift
Chain of mouse STING (Q3TBT3 154-378): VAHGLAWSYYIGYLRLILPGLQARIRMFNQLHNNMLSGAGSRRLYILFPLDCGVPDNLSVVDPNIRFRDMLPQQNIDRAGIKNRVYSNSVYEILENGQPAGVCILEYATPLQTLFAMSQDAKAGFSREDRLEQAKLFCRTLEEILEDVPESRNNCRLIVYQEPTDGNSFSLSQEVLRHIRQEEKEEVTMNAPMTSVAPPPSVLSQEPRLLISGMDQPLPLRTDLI

MC-38 tumor [9] = test: MC-38 tumor bearing mice treated with Example 1C and anti-PD-1, anti-PD-L1, anti-CTLA4; format: in vivo, C57BL/6J mice; conditions: for #Tumor Free Mice after Treatment: 10 animals/group
Excerpt: The animals were terminated when the tumor size reached 2,000 mm^3.

[10] = Example 1C 5 μg IT Day 0, 3, 7, 14, no RT
[11] = RT (5 Gy) Day −1, 0 / Example 1C 5 μg IT Day 0, 3, 7, 14
[12] = RT (5 Gy) Day −2, −1, 0 / Example 1C 5 μg IT Day 0, 3, 7, 14
[13] = CTLA4 + PD-L1 (5 + 5 mg/kg) + 5 μg Example 1C
[14] = Iso Ab (10 mg/kg) + 5 μg Example 1C
[15] = PD1 + PD-L1 (5 + 5 mg/kg) + 5 μg Example 1C

Nc1nc2c(ncn2[C@@H]2O[C@@H]3COP(=O)(S)OCCn4c(nc5cncnc54)COP(=O)(S)O[C@@H]2[C@@H]3F)c(=O)[nH]1 (single isomer, unassigned) [Example 1C]
ΔTm at 100 µM (human STING (R232H)): 5 to 10 °C | EC50 [1]: < 5000 nM | ΔTm at 100 µM [2]: > 20 °C | EC50 [3]: < 5000 nM | #Tumor Free Mice after Re-challenge (MC-38 tumor [4]; [10]): 0/0 | #Tumor Free Mice after Treatment (MC-38 tumor [4]; [10]): 0/0 | #Tumor Free Mice after Re-challenge (MC-38 tumor [4]; [11]): 3 | #Tumor Free Mice after Treatment (MC-38 tumor [4]; [11]): 4 | #Tumor Free Mice after Re-challenge (MC-38 tumor [4]; [12]): 7 | #Tumor Free Mice after Treatment (MC-38 tumor [4]; [12]): 8 | ΔTm at 100 µM (human STING (WT)): 10.1 to 20 °C | Number of surviving mice (CT-26 tumor; Day 0): 10/10 | Number of surviving mice (CT-26 tumor; Day 3): 10/10 | Number of surviving mice (CT-26 tumor; Day 7): 10/10 | Number of surviving mice (CT-26 tumor; Day 10): 10/10 | Number of surviving mice (CT-26 tumor; Day 14): 10/10 | Number of surviving mice (CT-26 tumor; Day 17): 10/10 | Number of surviving mice (CT-26 tumor; Day 20): 10/10 | Number of surviving mice (CT-26 tumor; Day 23): 10/10 | Number of surviving mice (CT-26 tumor; Day 35): 8/10 | Number of surviving mice in the re-challenge (CT-26 tumor; Rechallenge Day 0): 8/8 | Number of surviving mice in the re-challenge (CT-26 tumor; Rechallenge Day 7): 8/8 | Number of surviving mice in the re-challenge (CT-26 tumor; Rechallenge Day 11): 8/8 | Number of surviving mice in the re-challenge (CT-26 tumor; Rechallenge Day 14): 8/8 | Number of surviving mice in the re-challenge (CT-26 tumor; Rechallenge Day 17): 8/8 | Number of surviving mice in the re-challenge (CT-26 tumor; Rechallenge Day 20): 8/8 | Number of surviving mice in the re-challenge (CT-26 tumor; Rechallenge Day 24): 8/8 | Number of surviving mice in the re-challenge (CT-26 tumor; Rechallenge Day 27): 8/8 | Number of surviving mice in the re-challenge (CT-26 tumor; Rechallenge Day 30): 8/8 | Number of surviving mice in the re-challenge (CT-26 tumor; Rechallenge Day 33): 8/8 | IC50 [5]: < 1000 nM | Number of surviving mice (MC-38 tumor [6]; 5 μg Example 1C + 10 mg/kg Anti-PD-1, Day 0): 10/10 | Number of surviving mice (MC-38 tumor [6]; 5 μg Example 1C + 10 mg/kg Anti-PD-1, Day 3): 10/10 | Number of surviving mice (MC-38 tumor [6]; 5 μg Example 1C + 10 mg/kg Anti-PD-1, Day 6): 10/10 | Number of surviving mice (MC-38 tumor [6]; 5 μg Example 1C + 10 mg/kg Anti-PD-1, Day 10): 10/10 | Number of surviving mice (MC-38 tumor [6]; 5 μg Example 1C + 10 mg/kg Anti-PD-1, Day 14): 10/10 | Number of surviving mice (MC-38 tumor [6]; 5 μg Example 1C + 10 mg/kg Anti-PD-1, Day 17): 10/10 | Number of surviving mice (MC-38 tumor [6]; 5 μg Example 1C + 10 mg/kg Anti-PD-1, Day 21): 10/10 | Number of surviving mice (MC-38 tumor [6]; 5 μg Example 1C + 10 mg/kg Anti-PD-1, Day 24): 10/10 | Number of surviving mice (MC-38 tumor [6]; 5 μg Example 1C + 10 mg/kg Anti-PD-1, Day 27): 9/10 | Number of surviving mice (MC-38 tumor [6]; 5 μg Example 1C + 10 mg/kg Anti-PD-1, Day 30): 8/10 | Number of surviving mice (MC-38 tumor [6]; 5 μg Example 1C + 10 mg/kg Anti-PD-1, Day 34): 7/10 | Number of surviving mice (MC-38 tumor [6]; 5 μg Example 1C intra-tumoral Days 0, 3, 7, Day 0): 10/10 | Number of surviving mice (MC-38 tumor [6]; 5 μg Example 1C intra-tumoral Days 0, 3, 7, Day 3): 10/10 | Number of surviving mice (MC-38 tumor [6]; 5 μg Example 1C intra-tumoral Days 0, 3, 7, Day 6): 10/10 | Number of surviving mice (MC-38 tumor [6]; 5 μg Example 1C intra-tumoral Days 0, 3, 7, Day 10): 10/10 | Number of surviving mice (MC-38 tumor [6]; 5 μg Example 1C intra-tumoral Days 0, 3, 7, Day 14): 10/10 | Number of surviving mice (MC-38 tumor [6]; 5 μg Example 1C intra-tumoral Days 0, 3, 7, Day 17): 10/10 | Number of surviving mice (MC-38 tumor [6]; 5 μg Example 1C intra-tumoral Days 0, 3, 7, Day 21): 10/10 | Number of surviving mice (MC-38 tumor [6]; 5 μg Example 1C intra-tumoral Days 0, 3, 7, Day 24): 10/10 | Number of surviving mice (MC-38 tumor [6]; 5 μg Example 1C intra-tumoral Days 0, 3, 7, Day 27): 7/10 | Number of surviving mice (MC-38 tumor [6]; 5 μg Example 1C intra-tumoral Days 0, 3, 7, Day 30): 3/10 | Number of surviving mice (MC-38 tumor [6]; 5 μg Example 1C intra-tumoral Days 0, 3, 7, Day 34): 1/10 | IC50 [7]: < 1000 nM | increase in CXCL10 [8]: 1000 fold | increase in IL-6 compared to Control [8]: 300 fold | increase of IFN-β mRNA compared to ADU-S100 [8]: 30 fold | increase of IFN-β mRNA compared to Control [8]: 4000 fold | ΔTm at 100 µM (mouse STING): > 20 °C | #Tumor Free Mice after Re-challenge (MC-38 tumor [9]; [13]): 6/6 | #Tumor Free Mice after Treatment (MC-38 tumor [9]; [13]): 6/6 | #Tumor Free Mice after Re-challenge (MC-38 tumor [9]; [14]): 1 | #Tumor Free Mice after Treatment (MC-38 tumor [9]; [14]): 2 | #Tumor Free Mice after Re-challenge (MC-38 tumor [9]; [15]): 5 | #Tumor Free Mice after Treatment (MC-38 tumor [9]; [15]): 8

— US11161864B2, “Sting agonists” (Venenum Biodesign, LLC, priority 2018, dated 2021)
